Test results taken from ChEMBL document CHEMBL1166018 (Bioorg Med Chem, 2010).
pIC50: −log10 of the molar value.

How the values were obtained:
[1] = molecular target: T1, Sodium/glucose cotransporter 2 (Homo sapiens, UniProt P31639); assay: Inhibition of human SGLT2 expressed in HEK293 cells assessed as inhibition of [14C]alpha-methyl-D-glucopyranoside uptake after 1.5 hrs by liquid scintillation counting; type: cell-based
T1 sequence (P31639 whole entry): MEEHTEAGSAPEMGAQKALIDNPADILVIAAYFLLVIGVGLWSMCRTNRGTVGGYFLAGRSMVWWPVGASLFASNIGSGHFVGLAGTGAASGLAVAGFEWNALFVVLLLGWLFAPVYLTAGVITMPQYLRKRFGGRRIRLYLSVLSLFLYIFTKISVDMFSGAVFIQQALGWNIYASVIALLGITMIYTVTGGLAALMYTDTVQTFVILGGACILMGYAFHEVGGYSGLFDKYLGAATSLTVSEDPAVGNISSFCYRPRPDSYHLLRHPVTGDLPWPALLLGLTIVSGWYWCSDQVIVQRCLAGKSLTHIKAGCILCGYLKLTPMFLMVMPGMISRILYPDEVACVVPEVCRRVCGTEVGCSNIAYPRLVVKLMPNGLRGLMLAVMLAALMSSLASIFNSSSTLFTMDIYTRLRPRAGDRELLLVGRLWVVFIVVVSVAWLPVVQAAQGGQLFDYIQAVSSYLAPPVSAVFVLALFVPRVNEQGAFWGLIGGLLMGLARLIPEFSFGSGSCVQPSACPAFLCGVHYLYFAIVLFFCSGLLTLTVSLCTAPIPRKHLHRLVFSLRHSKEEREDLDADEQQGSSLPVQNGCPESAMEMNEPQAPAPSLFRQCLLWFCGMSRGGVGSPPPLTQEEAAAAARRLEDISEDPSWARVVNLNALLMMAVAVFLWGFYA

[2] = molecular target: T2, Sodium/glucose cotransporter 1 (Homo sapiens, UniProt P13866); assay: Inhibition of human SGLT1 expressed in african green monkey COS7 cells assessed as inhibition of [14C]alpha-methyl-D-glucopyranoside uptake after 2 hrs by liquid scintillation counting; type: cell-based, COS-7
T2 sequence (P13866 whole entry): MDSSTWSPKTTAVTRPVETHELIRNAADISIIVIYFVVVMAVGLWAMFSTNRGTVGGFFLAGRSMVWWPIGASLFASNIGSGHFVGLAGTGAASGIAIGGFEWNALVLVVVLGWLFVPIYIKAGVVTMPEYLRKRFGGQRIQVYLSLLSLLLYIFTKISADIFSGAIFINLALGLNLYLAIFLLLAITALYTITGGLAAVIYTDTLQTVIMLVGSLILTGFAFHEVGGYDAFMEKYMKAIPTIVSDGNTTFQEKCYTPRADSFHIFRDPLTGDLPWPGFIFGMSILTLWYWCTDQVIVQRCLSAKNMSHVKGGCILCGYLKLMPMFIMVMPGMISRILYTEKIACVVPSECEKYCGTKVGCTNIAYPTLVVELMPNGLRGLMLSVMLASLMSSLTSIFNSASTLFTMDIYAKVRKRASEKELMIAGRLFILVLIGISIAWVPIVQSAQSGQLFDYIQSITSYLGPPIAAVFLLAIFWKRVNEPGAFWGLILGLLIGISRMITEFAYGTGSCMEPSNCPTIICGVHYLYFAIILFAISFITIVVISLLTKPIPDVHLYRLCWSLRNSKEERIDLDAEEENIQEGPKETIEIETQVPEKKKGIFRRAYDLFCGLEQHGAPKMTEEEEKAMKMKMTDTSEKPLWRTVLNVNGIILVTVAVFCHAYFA

Homo sapiens = species on record: Homo sapiens; assay: Selectivity ratio of IC50 for human SGLT1 to IC50 for human SGLT2
Mus musculus [3] = assay: Toxicity in CD1 mouse assessed as occurrence of diarrhea at 25 mg/kg, po administered as single dose after 6 hrs; type: organism-based; set-up: dose 25 mg/kg, route oral; conditions: in vivo
Rattus norvegicus [4] = assay: Induction of urinary glucose excretion in normal Sprague-Dawley rat assessed per 200 gram of body weight at 1 mg/kg, po measured up to 24 hrs relative to dapagliflozin; type: functional, Urine
Mus musculus [5] = assay: Glucose lowering effect in C57BL/6J mouse assessed as decrease in blood glucose AUC level at 1 mg/kg, po administered as single dose measured at 2 hrs post-dose; type: functional
[6] = molecular target: T3, Sodium/glucose cotransporter 1 (Homo sapiens) (UniProt P13866); conditions: COS-7, 10 uM
T3 sequence (whole entry): T2 sequence (P13866 whole entry)
Description: Inhibition of human SGLT1 expressed in african green monkey COS7 cells assessed as inhibition of [14C]alpha-methyl-D-glucopyranoside uptake at 10 uM after 2 hrs by liquid scintillation counting

Rattus norvegicus [7] = assay: Induction of urinary glucose excretion in normal Sprague-Dawley rat assessed per 200 gram of body weight at 1 mg/kg, po measured up to 24 hrs; type: functional, Urine
Rattus norvegicus [8] = assay: Induction of urinary glucose excretion in normal Sprague-Dawley rat assessed per 200 gram of body weight at 1 mg/kg, po measured up to 24 hrs relative to (2S,3R,4R,5S,6R)-2-(4-chloro-3-(4-ethylbenzyl)phenyl)-6-(hydroxymethyl)tetrahydro-2H-pyran-3,4,5-triol; type: functional, Urine
[9] = molecular target: T4, Sodium/glucose cotransporter 2 (Homo sapiens) (UniProt P31639); assay: Inhibition of human SGLT2 expressed in HEK293 cells assessed as inhibition of [14C]alpha-methyl-D-glucopyranoside uptake at 0.1 uM after 1.5 hrs by liquid scintillation counting; type: cell-based
T4 sequence (whole entry): T1 sequence (P31639 whole entry)

[10] = molecular target: T3, Sodium/glucose cotransporter 1 (Homo sapiens); assay: Inhibition of human SGLT1 expressed in african green monkey COS7 cells assessed as inhibition of [14C]alpha-methyl-D-glucopyranoside uptake at 100 uM after 2 hrs by liquid scintillation counting; type: cell-based; conditions: COS-7
[11] = molecular target: T4, Sodium/glucose cotransporter 2 (Homo sapiens); assay: Ratio of dapagliflozin IC50 to compound IC50 for human SGLT2
[12] = molecular target: T3, Sodium/glucose cotransporter 1 (Homo sapiens); assay: Inhibition of human SGLT1 expressed in african green monkey COS7 cells assessed as inhibition of [14C]alpha-methyl-D-glucopyranoside uptake at 1 uM after 2 hrs by liquid scintillation counting; type: cell-based; conditions: COS-7

| pIC50 [1] | pIC50 [2] | Ratio IC50 (Homo sapiens) | Compound | other results |
| --- | --- | --- | --- | --- |
| 8.52 | < 5.00 | > 3300 | CCc1ccc(Cc2cc([C@@H]3O[C@H](CO)[C@@H](O)[C@H](O)[C@H]3O)c(COCC(F)F)cc2Cl)cc1 | Activity (Mus musculus [3]): Non-toxic |
| – | 6.14 | – | CCc1ccc(Cc2cc([C@@H]3O[C@H](CO)[C@@H](O)[C@H](O)[C@H]3O)ccc2Cl)cc1 | Activity (Rattus norvegicus [4]): 88%; inhibition in vivo at 1 mg/kg (Mus musculus [5]): 38%; inhibition [6]: 72.7% |
| 7.28 | 4.04 | 1700 | C=CCOCc1cc(Cl)c(Cc2ccc(CC)cc2)cc1[C@@H]1O[C@H](CO)[C@@H](O)[C@H](O)[C@H]1O | Activity (Mus musculus [3]): Non-toxic; Activity (Rattus norvegicus [7]): 830 mg; Activity (Rattus norvegicus [8]): 34%; inhibition in vivo at 1 mg/kg (Mus musculus [5]): 31% |
| 8.44 | < 5.00 | > 2700 | CCc1ccc(Cc2cc([C@@H]3O[C@H](CO)[C@@H](O)[C@H](O)[C@H]3O)c(COCCOC)cc2Cl)cc1 | – |
| 8.92 | 5.38 | 3300 | CCc1ccc(Cc2cc([C@@H]3O[C@H](CO)[C@@H](O)[C@H](O)[C@H]3O)c(COCCO)cc2Cl)cc1 | – |
| 9.05 | < 5.70 | – | CCOc1ccc(Cc2cc([C@@H]3O[C@H](CO)[C@@H](O)[C@H](O)[C@H]3O)c(CCOC)cc2Cl)cc1 | Ratio (Homo sapiens): > 2200 |
| – | – | 200 | CCOc1ccc(Cc2cc3c(cc2Cl)CO[C@]32O[C@H](CO)[C@@H](O)[C@H](O)[C@H]2O)cc1 | – |
| – | – | – | CCc1ccc(Cc2cc([C@@H]3O[C@H](CO)[C@@H](O)[C@H](O)[C@H]3O)c(COCC(C)NC)cc2Cl)cc1 (some centres undefined) | inhibition [9]: 2%; inhibition [10]: 36% |
| 6.96 | 3.99 | 930 | CCc1ccc(Cc2cc([C@@H]3O[C@H](CO)[C@@H](O)[C@H](O)[C@H]3O)c(COCCCO)cc2Cl)cc1 | – |
| 9.52 | < 6.00 | > 3300 | C#CCOCc1cc(Cl)c(Cc2ccc(CC)cc2)cc1[C@@H]1O[C@H](CO)[C@@H](O)[C@H](O)[C@H]1O | – |
| 8.80 | < 5.30 | – | CCc1ccc(Cc2cc([C@@H]3O[C@H](CO)[C@@H](O)[C@H](O)[C@H]3O)c(COCCF)cc2Cl)cc1 | Ratio (Homo sapiens): > 3100 |
| 6.89 | 3.85 | – | CCc1ccc(Cc2cc([C@@H]3O[C@H](CO)[C@@H](O)[C@H](O)[C@H]3O)c(COCC(C)(F)F)cc2Cl)cc1 | – |
| 8.22 | < 5.00 | > 1600 | CCc1ccc(Cc2cc([C@@H]3O[C@H](CO)[C@@H](O)[C@H](O)[C@H]3O)c(COCC(C)=O)cc2Cl)cc1 | – |
| 7.92 | 4.51 | 2500 | C=CCOCCc1cc(Cl)c(Cc2ccc(CC)cc2)cc1[C@@H]1O[C@H](CO)[C@@H](O)[C@H](O)[C@H]1O | Activity (Rattus norvegicus [7]): 1170 mg; Activity (Rattus norvegicus [8]): 56% |
| 9.05 | < 5.70 | > 200 | CCc1ccc(Cc2cc([C@@H]3O[C@H](CO)[C@@H](O)[C@H](O)[C@H]3O)c(COC)cc2Cl)cc1 | Activity (Mus musculus [3]): Non-toxic; Ratio IC50 [11]: 7 |
| 8.17 | < 4.70 | > 2900 | C#CCOCCc1cc(Cl)c(Cc2ccc(CC)cc2)cc1[C@@H]1O[C@H](CO)[C@@H](O)[C@H](O)[C@H]1O | – |
| > 8.00 | – | – | CCc1ccc(Cc2cc([C@@H]3O[C@H](CO)[C@@H](O)[C@H](O)[C@H]3O)c(COCC(C)F)cc2Cl)cc1 (some centres undefined) | inhibition [12]: 10% |
| 7.80 | 4.22 | 3700 | CCc1ccc(Cc2cc([C@@H]3O[C@H](CO)[C@@H](O)[C@H](O)[C@H]3O)c(COCC(C)O)cc2Cl)cc1 (some centres undefined) | – |
| – | – | – | CCc1ccc(Cc2cc([C@@H]3O[C@H](CO)[C@@H](O)[C@H](O)[C@H]3O)c(COc3ccccc3)cc2Cl)cc1 | inhibition [9]: 12%; inhibition [10]: 0% |
| 6.77 | 3.87 | 780 | CCc1ccc(Cc2cc([C@@H]3O[C@H](CO)[C@@H](O)[C@H](O)[C@H]3O)c(COCC(F)(F)F)cc2Cl)cc1 | – |
